“And” between values parts separate entries of the source, which are not always exact repeats. Identical values can stand only once.
Legend:
[1] = Proton relaxivities (1H NMRD profiles) of Gd(EPTPA-bz-NO2); type: physicochemical
Experimental: According to the ^17O chemical shifts, the complex has one inner sphere water molecule. […] The water exchange rate obtained for […]) is in the optimal range to attain high proton relaxivities. This property, together with the high thermodynamic stability, is a unique feature among Gd(III) chelates known so far and it makes […]) an ideal synthon to be attached to any rigid, slowly tumbling macromolecular agent. […] (bottom curve) and 25° C. (top curve).

[2] = Peak-to-peak line widths of the EPR band at 0.34 T; type: physicochemical; parameters: unit not given here
Text: (§1) The Gd(EPTPA-bz-NO2) complex (Formula VII, Z is NO2) has been investigated by ^17O NMR, EPR and ^1H NMRD.

[3] = Variable temperature 17O NMR relaxation rates and chemical shifts of GdEPTPA-bz-NO2; type: physicochemical; conditions: for ^17O NMR T1 / ^17O NMR T2 / ^17O NMR ν / ^17O NMR chemical shift Δw / ^17O NMR reduced chemical shift Δwr: C = 55.79 mM; for ^17O NMR T1 / ^17O NMR T2 / ^17O NMR ν: pH = 6.0; for ^17O NMR chemical shift Δw / ^17O NMR reduced chemical shift Δwr: pH = 6.0, reference = HClO4
Text: as §1

[4] = Simultaneous analysis of 17O NMR, EPR and NMRD data
Text: The ^17O NMR, NMRD and EPR experimental data (points) and the fitted curves (lines) as obtained in a simultaneous analysis, according to the method of Powell et al., J. Am. Chem. Soc.

`O=C([O-])CN(CCCN(CC(=O)[O-])CC(Cc1ccc([N+](=O)[O-])cc1)N(CC(=O)[O-])CC(=O)[O-])CC(=O)[O-].[Gd+3]` (centres unmarked) [Gd(EPTPA-bz-NO2)] gave a Proton relaxivity ([1]; 24.8° C., proton Larmor frequency 0.022 MHz) of 8.54 mM⁻¹ s⁻¹, a Proton relaxivity ([1]; 24.8° C., proton Larmor frequency 0.036 MHz) of 8.63 mM⁻¹ s⁻¹ and a Proton relaxivity ([1]; 24.8° C., proton Larmor frequency 0.061 MHz) of 8.69 mM⁻¹ s⁻¹. The Proton relaxivity ([1]; 24.8° C., proton Larmor frequency 0.101 MHz) was 8.34 mM⁻¹ s⁻¹, the Proton relaxivity ([1]; 24.8° C., proton Larmor frequency 0.168 MHz) was 8.47 mM⁻¹ s⁻¹ and the Proton relaxivity ([1]; 24.8° C., proton Larmor frequency 0.280 MHz) was 8.55 mM⁻¹ s⁻¹. The Proton relaxivity ([1]; 24.8° C., proton Larmor frequency 0.467 MHz) was 8.21 mM⁻¹ s⁻¹, the Proton relaxivity ([1]; 24.8° C., proton Larmor frequency 0.778 MHz) was 8.29 mM⁻¹ s⁻¹ and 8.39 mM⁻¹ s⁻¹ and the Proton relaxivity ([1]; 24.8° C., proton Larmor frequency 2.159 MHz) was 7.41 mM⁻¹ s⁻¹. The Proton relaxivity ([1]; 24.8° C., proton Larmor frequency 3.598 MHz) was 7.23 mM⁻¹ s⁻¹, the Proton relaxivity ([1]; 24.8° C., proton Larmor frequency 5.999 MHz) was 6.33 mM⁻¹ s⁻¹ and the Proton relaxivity ([1]; 24.8° C., proton Larmor frequency 9.998 MHz) was 5.56 mM⁻¹ s⁻¹. It also gave a Proton relaxivity ([1]; 24.8° C., proton Larmor frequency 12.001 MHz) of 5.47 mM⁻¹ s⁻¹, a Proton relaxivity ([1]; 24.8° C., proton Larmor frequency 14.002 MHz) of 5.15 mM⁻¹ s⁻¹ and a Proton relaxivity ([1]; 24.8° C., proton Larmor frequency 16.000 MHz) of 4.98 mM⁻¹ s⁻¹. For the same compound, the Proton relaxivity ([1]; 24.8° C., proton Larmor frequency 18.002 MHz) was 4.91 mM⁻¹ s⁻¹, the Proton relaxivity ([1]; 24.8° C., proton Larmor frequency 20.001 MHz) was 4.73 mM⁻¹ s⁻¹ and the Proton relaxivity ([1]; 37.3° C., proton Larmor frequency 0.022 MHz) was 6.47 mM⁻¹ s⁻¹. It also gave a Proton relaxivity ([1]; 37.3° C., proton Larmor frequency 0.036 MHz) of 6.56 mM⁻¹ s⁻¹, a Proton relaxivity ([1]; 37.3° C., proton Larmor frequency 0.061 MHz) of 6.44 mM⁻¹ s⁻¹ and a Proton relaxivity ([1]; 37.3° C., proton Larmor frequency 0.101 MHz) of 6.90 mM⁻¹ s⁻¹. For the same compound, the Proton relaxivity ([1]; 37.3° C., proton Larmor frequency 0.168 MHz) was 6.55 mM⁻¹ s⁻¹, the Proton relaxivity ([1]; 37.3° C., proton Larmor frequency 0.280 MHz) was 6.57 mM⁻¹ s⁻¹ and the Proton relaxivity ([1]; 37.3° C., proton Larmor frequency 0.467 MHz) was 6.49 mM⁻¹ s⁻¹. The Proton relaxivity ([1]; 37.3° C., proton Larmor frequency 0.778 MHz) was 6.19 mM⁻¹ s⁻¹ and 6.36 mM⁻¹ s⁻¹, the Proton relaxivity ([1]; 37.3° C., proton Larmor frequency 2.159 MHz) was 5.80 mM⁻¹ s⁻¹ and the Proton relaxivity ([1]; 37.3° C., proton Larmor frequency 3.598 MHz) was 5.67 mM⁻¹ s⁻¹. It also gave a Proton relaxivity ([1]; 37.3° C., proton Larmor frequency 5.999 MHz) of 5.21 mM⁻¹ s⁻¹, a Proton relaxivity ([1]; 37.3° C., proton Larmor frequency 9.998 MHz) of 4.42 mM⁻¹ s⁻¹ and a Proton relaxivity ([1]; 37.3° C., proton Larmor frequency 12.001 MHz) of 4.18 mM⁻¹ s⁻¹. The Proton relaxivity ([1]; 37.3° C., proton Larmor frequency 14.002 MHz) was 4.20 mM⁻¹ s⁻¹, the Proton relaxivity ([1]; 37.3° C., proton Larmor frequency 16.000 MHz) was 4.26 mM⁻¹ s⁻¹ and the Proton relaxivity ([1]; 37.3° C., proton Larmor frequency 18.002 MHz) was 4.12 mM⁻¹ s⁻¹. For the same compound, the “ΔHpp, peak-to-peak line width of the EPR band” value (shortened to “ΔHpp, peak-to-peak line width”) ([2]; T 3 ° C.) was 363.25, the “ΔHpp, peak-to-peak line width” value ([2]; T 23.5 ° C.) was 297.4 and the “ΔHpp, peak-to-peak line width” value ([2]; T 34.1 ° C.) was 286. The “ΔHpp, peak-to-peak line width” value ([2]; T 40.3 ° C.) was 280.2, the “ΔHpp, peak-to-peak line width” value ([2]; T 47.6 ° C.) was 283.15 and the “ΔHpp, peak-to-peak line width” value ([2]; T 56.3 ° C.) was 297.4. The “ΔHpp, peak-to-peak line width” value ([2]; T 72.4 ° C.) was 326, the “^17O NMR T1” value ([3]; T 274.5 K) was 0.00301 s and the “^17O NMR T2” value ([3]; T 274.5 K) was 0.00135 s. The “^17O NMR ν” value ([3]; T 274.5 K) was −3678.6 Hz, the “^17O NMR chemical shift Δw” value ([3]; T 274.5 K) was −133.1 Hz and the “^17O NMR reduced chemical shift Δwr” value ([3]; T 274.5 K) was −8.33E+05 Hz. The “^17O NMR T1” value ([3]; T 286.7 K) was 0.00428 s, the “^17O NMR T2” value ([3]; T 286.7 K) was 0.00167 s and the “^17O NMR ν” value ([3]; T 286.7 K) was −3686.0 Hz. For the same compound, the “^17O NMR chemical shift Δw” value ([3]; T 286.7 K) was −125.36 Hz, the “^17O NMR reduced chemical shift Δwr” value ([3]; T 286.7 K) was −7.84E+05 Hz and the “^17O NMR T1” value ([3]; T 293.5 K) was 0.00513 s. For the same compound, the “^17O NMR T2” value ([3]; T 293.5 K) was 0.00198 s, the “^17O NMR ν” value ([3]; T 293.5 K) was −3690.4 Hz and the “^17O NMR chemical shift Δw” value ([3]; T 293.5 K) was −125.25 Hz. The “^17O NMR reduced chemical shift Δwr” value ([3]; T 293.5 K) was −7.84E+05 Hz, the “^17O NMR T1” value ([3]; T 298.0 K) was 0.00599 s and the “^17O NMR T2” value ([3]; T 298.0 K) was 0.00263 s. For the same compound, the “^17O NMR ν” value ([3]; T 298.0 K) was −3705.7 Hz, the “^17O NMR chemical shift Δw” value ([3]; T 298.0 K) was −123.5 Hz and the “^17O NMR reduced chemical shift Δwr” value ([3]; T 298.0 K) was −7.73E+05 Hz. For the same compound, the “^17O NMR T1” value ([3]; T 306.7 K) was 0.00734 s, the “^17O NMR T2” value ([3]; T 306.7 K) was 0.00263 s and the “^17O NMR ν” value ([3]; T 306.7 K) was −3702.7 Hz. For the same compound, the “^17O NMR chemical shift Δw” value ([3]; T 306.7 K) was −120.4 Hz, the “^17O NMR reduced chemical shift Δwr” value ([3]; T 306.7 K) was −7.53E+05 Hz and the “^17O NMR T1” value ([3]; T 324.2 K) was 0.0104 s. For the same compound, the “^17O NMR T2” value ([3]; T 324.2 K) was 0.00425 s, the “^17O NMR ν” value ([3]; T 324.2 K) was −3751.5 Hz and the “^17O NMR chemical shift Δw” value ([3]; T 324.2 K) was −121.2 Hz. For the same compound, the “^17O NMR reduced chemical shift Δwr” value ([3]; T 324.2 K) was −7.58E+05 Hz, the “^17O NMR T1” value ([3]; T 338.7 K) was 0.0137 s and the “^17O NMR T2” value ([3]; T 338.7 K) was 0.00616 s. The “^17O NMR ν” value ([3]; T 338.7 K) was −3764.2 Hz, the “^17O NMR chemical shift Δw” value ([3]; T 338.7 K) was −99.4 Hz and the “^17O NMR reduced chemical shift Δwr” value ([3]; T 338.7 K) was −6.22E+05 Hz. For the same compound, the “^17O NMR T1” value ([3]; T 359.7 K) was 0.0189 s, the “^17O NMR T2” value ([3]; T 359.7 K) was 0.00967 s and the “^17O NMR ν” value ([3]; T 359.7 K) was −3803.0 Hz. The “^17O NMR chemical shift Δw” value ([3]; T 359.7 K) was −95.8 Hz, the “^17O NMR reduced chemical shift Δwr” value ([3]; T 359.7 K) was −5.99E+05 Hz and the “inner sphere water molecules of the complex” value ([3]; according to the ^17O chemical shifts) was “one”. The “water exchange rate kex^298” value [4] was 1.4e+08 s⁻¹ and the “water exchange rate, times higher than that measured on Gd(DTPA)” value ([4]; relative to Gd(DTPA)) was 40 times.
